Series [1] is described as follows: Evaluation of solubility (visual appearance of stored solutions in aliphatic hydrocarbon solvents). Format: physicochemical. The note with it: for solubility room temperature, 3 days: stored at room temperature for 3 days. The text has this:
The symbols used to evaluate solubility in the Tables mean the following: • ◯: homogeneous transparent solution state • Δ: cloudy state • x: two-phase separation or crystallization

The nature of series [2]: Evaluation of polymerization performance (ethylene/1-octene solution polymerization with CGC catalyst, compound as cocatalyst). As to conditions: CGC 3 μmol, catalyst:cocatalyst=1:1, TIBA 3000 μmol, 40 ml solvent (MCH), 1-octene 1 mL, ethylene 8 atm, 50° C., 6 min. Here is the method: A general polymerization method using the compound of the present invention (compound (1-2)) as a cocatalyst is shown below.
Into 100 mL autoclave in a glove box were added 1-octene, triisobutylaluminum (TIBA, 1.00 M hexane solution) and a solvent (methylcyclohexane (MCH)) to prepare a comonomer solution. A polymerization catalyst (dimethylsilylene(tert-butylamide)-(tetramethylcyclopentadienyl)-titanium (IV)-dichloride (CGC)), triisobutylaluminum (1.00 M hexane solution), and a solvent were added to prepare a catalyst solution at a predetermined concentration, and the solution was transferred to a Schlenk tube. Compound (1-2) (cocatalyst) was dissolved in a solvent, and a cocatalyst solution at a predetermined concentration was prepared and transferred to the Schlenk tube. The comonomer solution, the catalyst solution, and the cocatalyst solution were mixed, and prepared such that the total amount of the solvent and the total amount of triisobutylaluminum would be constant. The inside of the autoclave was purged with ethylene gas, the catalyst solution and the cocatalyst solution were successively added to the autoclave, and the ethylene gas pressure was immediately adjusted to a predetermined pressure, and the mixture was stirred at 50° C. for 6 min. […]

The mark [3] stands for this setting: 0.6 wt % (≈3 mM) borate compound/n-hexane solution, visual observation.
Where [4] appears, read: 50 wt % borate compound/methylcyclohexane solution, visual observation.
[5] abbreviates: 50 wt % borate compound/methylcyclohexane solution, stored at −15° C. for 3 days, visual observation.

Take `CCCCCCCCCCCCCCCCN(CCCCCCCCCCCCCCCC)c1ccccc1` [Comparative Example 1, N,N-Dihexadecylanilinium tetrakis(pentafluorophenyl) borate]: the “solubility room temperature, 3 days” value in series [1] (setting [3]) and in series [1] (setting [4]) was “∘” each time. Besides, in series [1] (setting [5]), the “solubility −15° C., 3 days” value is on record as “∘”. The solubility at 3 days in series [1] (organic solvent or mixture, 0.6 wt % (≈3 mM) borate compound/n-hexane solution, stored at −15° C. for 3 days, visual observation) was under 3000 µM.
Turning to `CCCCCCCCCCCCCCCCCC[NH+](CCCCCCCCCCCCCCCCCC)c1ccc(CCCC)cc1.Fc1c(F)c(F)c([B-](c2c(F)c(F)c(F)c(F)c2F)(c2c(F)c(F)c(F)c(F)c2F)c2c(F)c(F)c(F)c(F)c2F)c(F)c1F` [Example 2, N,N-Dioctadecyl-4-butylanilinium tetrakis(pentafluorophenyl) borate], the ethylene-octene copolymer obtained in series [2] is on record as 47.3 mg. Further, the “solubility room temperature, 3 days” value in series [1] (setting [3]) and in series [1] (setting [4]) was “∘” in each case. In addition, the “solubility −15° C., 3 days” value in series [1] (0.6 wt % (≈3 mM) borate compound/n-hexane solution, stored at −15° C. for 3 days, visual observation) is on record as “∘”; in series [1] (setting [5]), “∘”. The “solubility in aliphatic hydrocarbon solvents at low temperatures, in words” value in series [1] (compared to Comparative Examples 1 to 5, summary of Tables 1 and 2) is recorded as “remarkably high solubility”.

For the origin of these results see patent US20260200951A1, “NOVEL BORATE COMPOUND SOLUBLE IN ALIPHATIC HYDROCARBON SOLVENT” (AGC INC., priority 2023, published 2026).
